Experimental findings from patent EP4660182A1, “NAV1.7- AND/OR NAV1.8-INHIBITING ARYL PYRIDINE COMPOUNDS, PROCESSES FOR THE PREPARATION THEREOF, COMPOSITIONS, USES, METHODS FOR TREATMENT USING SAME, AND KITS” (Eurofarma Laboratórios S.A., priority 2023, dated 2024) are described below.

The term IC50 denotes the concentration that gives 50% inhibition.

For assay [1], the target named is T1, human sodium channels Nav 1.8 (Homo sapiens, UniProt Q9Y5Y9).
T1 construct: expressed in transfected cells
T1 sequence (Q9Y5Y9 whole entry): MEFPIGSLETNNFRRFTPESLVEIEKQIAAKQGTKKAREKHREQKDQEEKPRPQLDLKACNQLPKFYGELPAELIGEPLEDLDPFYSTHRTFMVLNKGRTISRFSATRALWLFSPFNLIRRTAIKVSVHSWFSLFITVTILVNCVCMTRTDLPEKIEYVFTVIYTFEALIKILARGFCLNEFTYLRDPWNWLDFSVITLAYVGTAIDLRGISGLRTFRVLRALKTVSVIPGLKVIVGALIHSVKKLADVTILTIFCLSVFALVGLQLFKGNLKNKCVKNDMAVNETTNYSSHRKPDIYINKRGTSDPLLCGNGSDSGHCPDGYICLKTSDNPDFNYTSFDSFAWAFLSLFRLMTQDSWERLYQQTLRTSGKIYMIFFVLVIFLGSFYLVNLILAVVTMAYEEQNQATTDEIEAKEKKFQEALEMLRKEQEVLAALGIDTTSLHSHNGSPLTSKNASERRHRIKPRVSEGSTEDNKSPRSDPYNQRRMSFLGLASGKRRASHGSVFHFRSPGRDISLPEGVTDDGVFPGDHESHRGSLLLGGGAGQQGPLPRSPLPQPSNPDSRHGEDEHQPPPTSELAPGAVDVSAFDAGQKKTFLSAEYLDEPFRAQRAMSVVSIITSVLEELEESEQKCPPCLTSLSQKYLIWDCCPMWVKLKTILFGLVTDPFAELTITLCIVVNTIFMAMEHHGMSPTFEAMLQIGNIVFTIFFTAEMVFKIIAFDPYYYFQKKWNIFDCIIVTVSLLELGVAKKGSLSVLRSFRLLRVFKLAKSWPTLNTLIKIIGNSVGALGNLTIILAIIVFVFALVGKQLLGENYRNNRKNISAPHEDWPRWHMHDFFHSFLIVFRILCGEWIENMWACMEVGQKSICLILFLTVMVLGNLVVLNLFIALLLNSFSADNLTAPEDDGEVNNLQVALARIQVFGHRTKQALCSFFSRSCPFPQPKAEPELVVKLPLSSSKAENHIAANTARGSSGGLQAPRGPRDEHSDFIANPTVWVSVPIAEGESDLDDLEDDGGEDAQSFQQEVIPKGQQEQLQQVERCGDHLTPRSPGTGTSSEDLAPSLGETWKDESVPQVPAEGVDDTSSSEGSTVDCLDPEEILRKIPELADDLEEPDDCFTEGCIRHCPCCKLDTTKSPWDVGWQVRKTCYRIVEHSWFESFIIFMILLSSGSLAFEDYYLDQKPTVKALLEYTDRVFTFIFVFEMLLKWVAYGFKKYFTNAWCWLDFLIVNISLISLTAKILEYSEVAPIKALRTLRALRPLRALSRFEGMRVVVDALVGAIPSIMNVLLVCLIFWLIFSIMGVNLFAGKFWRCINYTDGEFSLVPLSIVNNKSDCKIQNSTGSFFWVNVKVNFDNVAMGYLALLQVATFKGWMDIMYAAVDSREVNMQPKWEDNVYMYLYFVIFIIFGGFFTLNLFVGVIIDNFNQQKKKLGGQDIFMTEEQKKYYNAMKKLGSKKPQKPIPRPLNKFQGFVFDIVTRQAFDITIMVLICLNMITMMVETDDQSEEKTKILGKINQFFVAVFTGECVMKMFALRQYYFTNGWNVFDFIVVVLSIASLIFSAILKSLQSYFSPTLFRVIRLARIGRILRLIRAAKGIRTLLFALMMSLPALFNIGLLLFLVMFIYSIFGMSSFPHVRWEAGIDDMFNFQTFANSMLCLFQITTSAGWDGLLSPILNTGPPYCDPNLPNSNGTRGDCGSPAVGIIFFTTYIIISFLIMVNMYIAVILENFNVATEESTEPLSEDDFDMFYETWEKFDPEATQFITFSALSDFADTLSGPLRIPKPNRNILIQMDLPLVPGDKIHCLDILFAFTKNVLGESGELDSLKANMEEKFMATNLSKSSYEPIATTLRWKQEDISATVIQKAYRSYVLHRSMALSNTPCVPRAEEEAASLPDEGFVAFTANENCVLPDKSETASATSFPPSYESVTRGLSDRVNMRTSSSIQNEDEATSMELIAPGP
Description: Automated whole-cell voltage-clamp (ScreenPatch 384P) sodium current block, Nav 1.8. The class given is cell-based. Conditions: CHO cells stably expressing human Nav 1.8; inactivation step -40 mV 8 s, test step 10 mV (TP1A); eight concentrations; exposure at least five minutes; room temperature; read-out: Nav1.8 IC50. In outline: (§1)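 Stable CHO lines, whole-cell automated patch clamp at room temperature, ≥5 min exposure, eight concentrations. From -100 mV hold, 8 s at -40 mV, 20 ms at -100 mV, then test pulse to 10 mV (Nav 1.8) or 0 mV (Nav 1.7) at 0.05 Hz; peak-current % block fitted for IC50, averaged over repeats.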

Assay [2] has as its target T2, human sodium channels Nav 1.7 (Homo sapiens, UniProt Q15858).
T2 construct: expressed in transfected cells
Kind of assay: Automated whole-cell voltage-clamp (ScreenPatch 384P) sodium current block, Nav 1.7. Conditions: CHO cells stably expressing human Nav 1.7; inactivation step -40 mV 8 s, test step 0 mV (TP1A); eight concentrations; exposure at least five minutes; room temperature; read-out: Nav1.7 IC50. It is filed as cell-based. In outline: as §1

T2 sequence (Q15858 whole entry): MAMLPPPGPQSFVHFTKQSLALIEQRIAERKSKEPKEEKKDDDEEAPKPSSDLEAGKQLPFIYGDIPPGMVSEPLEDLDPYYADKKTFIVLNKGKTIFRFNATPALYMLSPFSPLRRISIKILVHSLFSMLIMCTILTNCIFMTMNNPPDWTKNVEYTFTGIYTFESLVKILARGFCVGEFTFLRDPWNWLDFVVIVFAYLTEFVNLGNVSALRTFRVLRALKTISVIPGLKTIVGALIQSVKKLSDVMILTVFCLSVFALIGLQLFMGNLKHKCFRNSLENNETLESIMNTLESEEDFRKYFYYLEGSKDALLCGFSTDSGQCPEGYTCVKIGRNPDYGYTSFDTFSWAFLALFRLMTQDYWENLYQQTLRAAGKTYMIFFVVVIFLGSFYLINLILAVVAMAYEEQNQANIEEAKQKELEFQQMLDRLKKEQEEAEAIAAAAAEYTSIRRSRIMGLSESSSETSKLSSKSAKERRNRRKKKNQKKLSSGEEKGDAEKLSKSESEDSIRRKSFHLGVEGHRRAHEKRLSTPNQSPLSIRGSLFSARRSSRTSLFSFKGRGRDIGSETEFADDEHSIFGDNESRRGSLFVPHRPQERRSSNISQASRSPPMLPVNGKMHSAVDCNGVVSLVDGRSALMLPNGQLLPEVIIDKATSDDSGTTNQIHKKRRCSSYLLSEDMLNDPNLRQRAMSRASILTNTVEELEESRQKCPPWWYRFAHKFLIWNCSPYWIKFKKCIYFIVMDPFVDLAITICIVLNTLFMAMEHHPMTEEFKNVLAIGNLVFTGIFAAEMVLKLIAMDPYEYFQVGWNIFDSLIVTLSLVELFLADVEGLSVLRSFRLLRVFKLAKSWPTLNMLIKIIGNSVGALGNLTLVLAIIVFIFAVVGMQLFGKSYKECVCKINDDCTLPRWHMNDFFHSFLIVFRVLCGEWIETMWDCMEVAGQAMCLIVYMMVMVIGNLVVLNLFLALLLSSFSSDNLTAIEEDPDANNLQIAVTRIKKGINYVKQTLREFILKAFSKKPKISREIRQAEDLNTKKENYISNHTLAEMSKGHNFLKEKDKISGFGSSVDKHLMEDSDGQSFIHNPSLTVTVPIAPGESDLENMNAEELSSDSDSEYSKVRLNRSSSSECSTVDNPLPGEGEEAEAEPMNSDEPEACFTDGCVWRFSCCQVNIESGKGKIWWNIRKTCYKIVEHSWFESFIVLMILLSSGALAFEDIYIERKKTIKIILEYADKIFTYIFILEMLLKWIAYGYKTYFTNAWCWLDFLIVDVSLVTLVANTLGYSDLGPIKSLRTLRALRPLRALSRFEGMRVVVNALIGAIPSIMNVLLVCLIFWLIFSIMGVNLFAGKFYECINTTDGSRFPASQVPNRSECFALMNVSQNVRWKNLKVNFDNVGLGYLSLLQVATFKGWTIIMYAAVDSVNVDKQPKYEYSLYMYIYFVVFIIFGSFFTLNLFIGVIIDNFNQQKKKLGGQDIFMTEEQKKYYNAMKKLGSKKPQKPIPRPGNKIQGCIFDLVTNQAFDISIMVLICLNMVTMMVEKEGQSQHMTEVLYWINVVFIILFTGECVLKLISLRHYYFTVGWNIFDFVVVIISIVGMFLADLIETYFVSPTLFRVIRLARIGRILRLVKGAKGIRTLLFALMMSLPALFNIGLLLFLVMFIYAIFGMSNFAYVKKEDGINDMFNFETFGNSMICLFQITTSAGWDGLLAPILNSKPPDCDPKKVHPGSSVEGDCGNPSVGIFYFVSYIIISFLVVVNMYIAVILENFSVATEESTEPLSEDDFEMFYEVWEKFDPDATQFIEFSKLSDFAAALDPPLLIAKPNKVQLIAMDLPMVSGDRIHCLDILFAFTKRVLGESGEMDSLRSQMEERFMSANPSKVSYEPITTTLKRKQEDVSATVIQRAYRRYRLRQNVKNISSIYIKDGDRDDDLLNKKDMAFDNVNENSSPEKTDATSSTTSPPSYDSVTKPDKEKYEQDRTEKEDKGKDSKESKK

As for `COc1ccc(F)c(/C=N/NC(=O)c2cncc(-c3ccc([S+](C)[O-])nc3)n2)c1` (stereo not shown) [Compound 131, (E)-N'-(2-fluoro-5-methoxybenzylidene)-6-(6-(methylsulfinyl)pyridine-3-yl)pyrazine-2-carbohydrazide], the figures for the concentration for half-maximal inhibition (IC50) in assay [1] and in assay [2] were 0.5 to 1 µM and greater than 1 µM, respectively.
Taken in the same sequence, the figures for `CCOc1ncc(-c2cncc(C(=O)N/N=C/c3cc(OC)cnc3F)n2)cc1O` [Compound 157, (E)-6-(6-ethoxy-5-hydroxypyridine-3-yl)-N'-((2-fluoro-5-methoxypyridine-3-yl)methylene) pyrazine-2-carbohydrazide] were 0.5 to 1 µM and greater than 1 µM.
The corresponding values for `COc1cnc(F)c(/C=N/NC(=O)c2cncc(-c3ccc(O)nc3)n2)c1` [Compound 167, (E)-N'-((2-fluoro-5-methoxypyridine-3-yl)methylene)-6-(6-hydroxypyridine-3-yl) pyrazine-2-carbohydrazide] are greater than 1 µM and greater than 1 µM.
Taken in the same sequence, the figures for `CCOc1ccc(-c2cncc(C(=O)N/N=C/c3cncn3C(C)C)n2)cn1` [Compound 53, (E)-6-(6-ethoxypyridine-3-yl)-N'-((1-isopropyl-1H-imidazole-5-yl)methylene)pyrazine-2-carbohydrazide] were greater than 1 µM and greater than 1 µM.
As for `CCOc1ccc(-c2nc(C(=O)N/N=C/c3cc(OC)ccc3F)cnc2O)cn1` [Compound 66, (E)-6-(6-ethoxypyridine-3-yl)-N'-(2-fluoro-5-methoxybenzylidene)-5-hydroxypyrazine-2-carbohydrazide], the IC50 in assay [1] and in assay [2] was greater than 1 µM in each case.
Consider `COc1cnc(F)c(/C=N/NC(=O)c2cncc(-c3ccc(OC(F)F)nc3C)n2)c1` [Compound 159, (E)-6-(6-(difluoromethoxy)-2-methylpyridine-3-yl)-N'-((2-fluoro-5-methoxypyridine-3-yl)methylene)pyrazine-2-carbohydrazide], for which the IC50 in assay [1] is less than 0.5 µM; in assay [2] it was greater than 1 µM.
As to `CCOc1ccc(-c2cncc(C(=O)N/N=C/c3cc(OC)cnc3F)c2)cn1` [Compound 74, (E)-6'-ethoxy-N'-((2-fluoro-5-methoxypyridine-3-yl)methylene)-[3,3'-bipyridine]-5-carbohydrazide], the IC50 in assay [1] and in assay [2] was greater than 1 µM in each case.
For `Cc1ccccc1/C=N/NC(=O)c1cncc(-c2ccc(OC(F)(F)F)nc2)n1` [Compound 88, (E)-N'-(2-methylbenzylidene)-6-(6-(trifluoromethoxy)pyridine-3-yl)pyrazine-2-carbohydrazide], the IC50 in assay [1] and in assay [2] was less than 0.5 µM in each case.
Consider `O=C(N/N=C/c1ccccc1F)c1cncc(-c2ccc(OC(F)(F)F)nc2)n1` [Compound 89, (E)-N'-(2-fluorobenzylidene)-6-(6-(trifluoromethoxy)pyridine-3-yl)pyrazine-2-carbohydrazide], for which the IC50 in assay [1] was less than 0.5 µM; in assay [2] it was greater than 1 µM.
As for `CCOc1ccc(F)c(/C=N/NC(=O)c2cncc(-c3ccc(OCC)nc3)n2)c1` [Compound 4, (E)-N'-(5-ethoxy-2-fluorobenzylidene)-6-(6-ethoxypyridine-3-yl)pyrazine-2-carbohydrazide], the IC50 is less than 0.5 µM in assay [1] and greater than 1 µM in assay [2].
The corresponding values for `COc1cccc(/C=N/NC(=O)c2cncc(-c3ccc(OC(F)(F)F)nc3)n2)c1` [Compound 90, (E)-N'-(3-methoxybenzylidene)-6-(6-(trifluoromethoxy)pyridine-3-yl)pyrazine-2-carbohydrazide] are less than 0.5 µM and greater than 1 µM.
With `CCOc1ccc(-c2cncc(C(=O)N/N=C/c3cccc(O)n3)n2)cn1` [Compound 40, (E)-6-(6-ethoxypyridine-3-yl)-N'-((6-hydroxypyridine-2-yl)methylene)pyrazine-2-carbohydrazide], the IC50 in assay [1] and in assay [2] was greater than 1 µM each time.
For the molecule `COc1cnc(F)c(/C=N/NC(=O)c2cncc(-c3ccc(OC4CNC4)nc3)n2)c1` [Compound 142, (E)-6-(6-(azetidin-3-yloxy)pyridine-3-yl)-N'-((2-fluoro-5-methoxypyridine-3-yl)methylene)pyrazine-2-carbohydrazide], the IC50 in assay [1] and in assay [2] was greater than 1 µM throughout.
As for `CCOc1ccc(-c2cncc(C(=O)N/N=C/c3cc(OC)cnc3C)n2)cn1` [Compound 27, (E)-6-(6-ethoxypyridine-3-yl)-N'-((5-methoxy-2-methylpyridine-3-yl)methylene)pyrazine-2-carbohydrazide], the IC50 is less than 0.5 µM in assay [1] and greater than 1 µM in assay [2].
For `COc1ccc(O)c(/C=N/NC(=O)c2cncc(-c3ccc(OC(F)F)nc3)n2)c1` [Compound 120, (E)-6-(6-(difluoromethoxy)pyridine-3-yl)-N'-(2-hydroxy-5-methoxybenzylidene)pyrazine-2-carbohydrazide], the concentration for half-maximal inhibition (IC50) in assay [1] and in assay [2] was greater than 1 µM each time.
As to `CCOc1ccc(-c2cncc(C(=O)N/N=C/c3cncc(C(C)O)c3)n2)cn1` (stereo not shown) [Compound 24, (E)-6-(6-ethoxypyridine-3-yl)-N'-((5-(1-hydroxyethyl)pyridine-3-yl)methylene)pyrazine-2-carbohydrazide], the IC50 in assay [1] and in assay [2] was greater than 1 µM in each case.
As for `CN(C)c1ccc(F)c(/C=N/NC(=O)c2cncc(-c3ccc(OC(F)(F)F)nc3)n2)c1` [Compound 93, (E)-N'-(5-(dimethylamino)-2-fluorobenzylidene)-6-(6-(trifluoromethoxy)pyridine-3-yl) pyrazine-2-carbohydrazide], the IC50 in assay [1] was less than 0.5 µM; in assay [2] it was greater than 1 µM.
Taken in the same sequence, the figures for `CCOc1ccc(-c2cncc(C(=O)N/N=C/c3cc(N(C)C)ccc3F)n2)cn1` [Compound 11, (E)-N'-(5-(dimethylamino)-2-fluorobenzylidene)-6-(6-ethoxypyridine-3-yl)pyrazine-2-carbohydrazide] were less than 0.5 µM and greater than 1 µM.
As for `CN(C)c1cnc(F)c(/C=N/NC(=O)c2cncc(-c3ccc(OC(F)F)nc3)n2)c1` [Compound 105, (E)-6-(6-(difluoromethoxy)pyridine-3-yl)-N'-((5-(dimethylamino)-2-fluoropyridine-3-yl)methylene)pyrazine-2-carbohydrazide], the IC50 in assay [1] and in assay [2] was greater than 1 µM throughout.
With `CCOc1ccc(-c2cncc(C(=O)N/N=C/c3cc(OC)cnc3F)n2)c(C)n1` [Compound 152, (E)-6-(6-ethoxy-2-methylpyridine-3-yl)-N'-((2-fluoro-5-methoxypyridine-3-yl)methylene)pyrazine-2-carbohydrazide], the IC50 in assay [1] is less than 0.5 µM; in assay [2], greater than 1 µM.
Taken in the same sequence, the figures for `CCOc1ccc(-c2cncc(C(=O)N/N=C/c3cc(OC)ccn3)n2)cn1` [Compound 9, (E)-6-(6-ethoxypyridine-3-yl)-N'-((4-methoxypyridine-2-yl)methylene)pyrazine-2-carbohydrazide] were less than 0.5 µM and greater than 1 µM.
On to `CCOc1ccc(-c2cncc(C(=O)N/N=C/c3cc(C(C)O)ccn3)n2)cn1` (stereo not shown) [Compound 31, (E)-6-(6-ethoxypyridine-3-yl)-N'-((4-(1-hydroxyethyl)pyridine-2-yl)methylene)pyrazine-2-carbohydrazide], for which the IC50 in assay [1] and in assay [2] was greater than 1 µM in each case.
As to `O=C(N/N=C/c1ccncc1)c1cncc(-c2ccc(OC(F)(F)F)nc2)n1` [Compound 87, (E)-N'-(pyridine-4-ylmethylene)-6-(6-(trifluoromethoxy)pyridine-3-yl)pyrazine-2-carbohydrazide], the IC50 in assay [1] and in assay [2] was greater than 1 µM each time.
Turning to `COc1cnc(F)c(/C=N/NC(=O)c2cncc(-c3ccc(OC(F)F)nc3)c2)c1` [Compound 128, (E)-6'-(difluoromethoxy)-N'-((2-fluoro-5-methoxypyridine-3-yl)methylene)-[3,3'-bipyridine]-5-carbohydrazide], the IC50 in assay [1] and in assay [2] was greater than 1 µM in each case.
Take `CCOc1ccc(-c2cncc(C(=O)N/N=C/c3[nH]ccc3C#N)n2)cn1` [Compound 59, (E)-N'-((3-cyano-1H-pyrrole-2-yl)methylene)-6-(6-ethoxypyridine-3-yl)pyrazine-2-carbohydrazide]: the IC50 in assay [1] and in assay [2] was greater than 1 µM each time.
`COc1cc(/C=N/NC(=O)c2cncc(-c3ccc(OC4CC4)nc3)n2)ccc1F` [Compound 81, (E)-6-(6-cyclopropoxypyridine-3-yl)-N'-(4-fluoro-3-methoxybenzylidene)pyrazine-2-carbohydrazide]: the IC50 was less than 0.5 µM in assay [1] and 0.5 to 1 µM in assay [2].
`CCOc1ccc(-c2cncc(C(=O)N/N=C/c3ccnn3C(C)C)n2)cn1` [Compound 54, (E)-6-(6-ethoxypyridine-3-yl)-N'-((1-isopropyl-1H-pyrazole-5-yl)methylene)pyrazine-2-carbohydrazide]: the IC50 is less than 0.5 µM in assay [1] and greater than 1 µM in assay [2].
With `COc1cnc(F)c(/C=N/NC(=O)c2cncc(-c3ccc(OCCC4CNC4)nc3)n2)c1` [Compound 144, (E)-6-(6-(2-(azetidine-3-yl)ethoxy)pyridine-3-yl)-N'-((2-fluoro-5-methoxypyridine-3-yl)methylene)pyrazine-2-carbohydrazide], the 50% inhibitory concentration (IC50) in assay [1] and in assay [2] was greater than 1 µM each time.
Take `CCOc1ccc(-c2cnc(O)c(C(=O)N/N=C/c3cccn3C)n2)cn1` [Compound 70, (E)-6-(6-ethoxypyridine-3-yl)-3-hydroxy-N'-((1-methyl-1H-pyrrole-2-yl)methylene)pyrazine-2-carbohydrazide]: the IC50 in assay [1] and in assay [2] was greater than 1 µM in each case.
